Results on two molecules are retold here after US8455448B2, “Myostatin isoform” (Myostin Therapeutics Pty Ltd, priority 2004, dated 2013).

Entries after “also recorded” stand apart in the source; their conditions may differ.

This assay has as its system murine C2C12 myoblasts. As to the kind of experiment: Proliferation assay of C2C12 murine myoblasts (methylene blue, absorbance 655 nm). The class given is cell-based. On the procedure:
(§1) Myoblasts were seeded in 96-well tissue culture plates (Nunc, Roskilde, Denmark) at a cell density of 1000 cells per well in 200 μl of Dulbecco's modified Eagle's medium (DMEM, Invitrogen, California) supplemented with foetal bovine serum (FBS, 10% v/v, Invitrogen), penicillin (1×10^5 IU/l, Sigma, St Louis, Mo., USA) and streptomycin (100 mg/l, Sigma) buffered with NaHCO3 containing phenol red (7.22 nmol/l) as a pH indicator, and incubated overnight at 37° C. with 5% CO2. Medium was replaced with DMEM 10% FBS test medium containing 0, 0.001, 0.003, 0.01, 0.03, 0.1, 0.3, 1, 3 or 10 μg/ml oMSV65 in a semi-random arrangement of eight replicates (n=8) for each test medium. Plates were incubated at 37° C. with 5% CO2 for 72 hours, and then the medium was removed. The wells were washed with 200 μl of phosphate buffered saline (PBS, Oxoid, UK) and fixed with 100 μl of 10% formaldehyde, 0.9% NaCl solution for at least one hour. The fixative was then removed and 100 μl of 1% methylene blue stain in 0.01 M borate buffer (pH 8.5) was added to each well and incubated for 30 min at room temperature. Excess stain was removed by four sequential washes in borate buffer. Methylene blue was eluted from the cells by the addition of 100 μl 1:1 (v/v) ethanol/0.1 HCl. The plates were gently shaken and the absorbance was measured at 655 nm using a microplate photometer (FIGS. 3a and 3b).
as §1, with “0,” for “0, 0.001, 0.003,”, “0.01,” for “0.01, 0.03,”, “1” for “0.3, 1, 3”, “oMSV47” for “oMSV65”, “60” for “72”, “(FIG. 9).” for “(FIGS. 3a and 3b).”
Myoblasts were seeded in 96-well tissue culture plates (Nunc, Roskilde, Denmark) at a cell density of 1000 cells per well in […] of Dulbecco's modified Eagle's medium (DMEM, Invitrogen, California) supplemented with foetal bovine serum (FBS, 10% v/v, Invitrogen), penicillin (1×10^5 IU/l, Sigma, St Louis, Mo., USA) and streptomycin (100 mg/l, Sigma) buffered with NaHCO3 containing phenol red (7.22 nmol/l) as a pH indicator, and incubated overnight at 37° C. with 5% CO2. Medium was replaced with DMEM 2.5% FBS test medium containing 0, 0.01, 0.1, 1, 5 or 10 μg/ml of the respective peptides in a semi-random arrangement of eight replicates (n=8) for each test medium. Plates were incubated at 37° C. with 5% CO2 for 80 hours, and then the medium was removed. The wells were washed with 200 μl of phosphate buffered saline (PBS, Oxoid, UK) and fixed with 100 μl of 10% formaldehyde, 0.9% NaCl solution for at least one hour. The fixative was then removed and 100 μl of 1% methylene blue stain in 0.01 M borate buffer (pH 8.5) was added to each well and incubated for 30 min at room temperature. Excess stain was removed by four sequential washes in borate buffer. Methylene blue was eluted from the cells by the addition of 100 μl 1:1 (v/v) ethanol/0.1 HCl. […]

The mark [1] stands for this setting: roMSV47 1-10,000 ng/ml, 60 h, FIG. 10.

Consider “roMSV47: 47 amino acid C-terminal mature ovine MSV fragment (SEQ ID NO: 50), recombinant from E. coli (IIFLEVYIQFCSILGEAVFKRQSKSIHFCQNFKIIACLCNTAAFRMK; Ovis aries)”, for which, for the setting “0-10 μg/ml, DMEM 2.5% FBS, 80 h, FIG. 12A and FIG. 17”, the “proliferation of murine C2C12 myoblasts” value is listed as “stimulate myoblast proliferation; also recorded: stimulate C2C12 cell growth in a dose dependent manner”. Also, under setting [1], the C2C12 myoblast proliferation result is “stimulates murine C2C12 myoblast proliferation” and the “concentration of maximum proliferation enhancing activity” value was 0.1 to 0.5 µg/mL. Further, where the note is “roMSV47, 60 h, FIG. 10”, the “increase in myoblast proliferation” value is “more than 2 fold”.

B1: roMSV65: 65 amino acid C-terminal peptide of ovine MSV (SEQ ID NO: 49) expressed as recombinant protein in E. coli (protein)
chain: VHFYTPPYGQWIFHKERKIIFLEVYIQFCSILGEAVFKRQSKSIHFCQNFKIIACLCNTAAFRMK
modifications: Ovis aries
Consider B1, for which the “myoblast cell growth (proliferation)” value (roMSV65 0 to 10 μg/ml, 72 h, FIG. 3A) is reported as “stimulate myoblast cell growth in a dose dependent manner”. The “proliferation of murine C2C12 myoblasts” value (roMSV65 without myostatin, 48 h, FIG. 9) was “stimulated proliferation of murine myoblasts”.
